Our source for the IC50 values is patent publication US10100050B2 (CHIESI FARMACEUTICI S.P.A., priority 2015, dated 2018).

The target of one assay is T1, p38alpha (Homo sapiens, UniProt Q16539).
T1 construct: purchased Invitrogen PV3304
The assay is described as follows: P38alpha enzyme inhibition assay (Alphascreen kinase activity assay). The format is biochemical. Particulars: IC50 classes; 2 hours preincubation at 25° C., 250 μM ATP; read-out: p38α inhibition. How it is done: P38alpha Enzyme Inhibition Assay
The inhibitory activity of compounds was determined using an Alphascreen® (Perkin Elmer) based kinase activity assay. Kinase reactions consisted of 25 mM HEPES pH 7.5, 10 mM MgCl2, 100 μM Na3VO4, 2 mM DTT, 0.05 mg/ml Tween […] (Invitrogen, PV3304), 1% DMSO and 0.3 μg/ml ATF-2 fusion protein (New England Biolabs, 9224). Compounds were incubated under these conditions for 2 hours, at 25° C., prior to the initiation of the kinase activity by the addition of the 250 μM ATP. Reaction volumes were 20 uL. After 1 hr at 25° C. reactions were stopped by the adding 10 uL of 25 mM HEPES pH 7.5 containing 62.5 mM EDTA, 0.05% Triton X-100, 10% BSA and 0.83 ng/uL anti-phospho-ATF2 antibody (Abcam, ab28812). Detection was performed by measuring luminescence following the addition of Alphascreen Donor beads (Perkin Elmer 6765300) and Protein A Alphascreen Acceptor beads (Perkin Elmer 6760137), both at a final concentration of 20 ug/ml. IC50 values were determined from concentration-response curves.
In general terms: Alpha assays give light when donor and acceptor beads are brought close together.

The subject of assay [1] is Peripheral Blood Mononuclear Cells (PBMCs). The assay is described as follows: LPS-stimulated PBMC TNFα release assay. It counts as cell-based. Particulars: IC50 classes; human PBMC, LPS 10 ng/ml, 18 h; read-out: LPS-stimulated PBMC TNFα release inhibition. As to the method:
1-10 nM ‘+’; • <1 nM ‘++’ LPS-Stimulated PBMC TNFα Release Assay
Peripheral Blood Mononuclear Cells (PBMCs) were isolated from healthy human volunteer blood using a standard density gradient centrifugation technique. Citrated blood was placed onto Histopaque™ and centrifuged. The PBMCs were removed from the density gradient interface and washed in phosphate buffered saline (PBS). The PBMCs were suspended in RPMI 1640 medium (without serum), dispensed into a 96-well plate and incubated at 37° C. for 3 h in a humidified incubator. After incubation, the medium was replaced (with medium containing 1% foetal bovine serum) and the plate incubated at 37° C., for 1 h, in the presence of test compound or the appropriate vehicle. LPS (10 ng/ml), or an appropriate vehicle control, was then added to the cells and the plate returned to the incubator for 18 h. Cell-free supernatants were removed and assayed for TNFα levels using MSD plates on the Sector Imager 6000 (MesoScale).
A dose response curve to each test compound was performed and the effect of compound in each experiment was expressed as a percentage inhibition of the control TNFα release. Dose response curves were plotted and compound potency (IC50) was determined. Compounds were tested in at least three separate experiments.

A further assay concerns BEAS-2B cells. The assay is described as follows: TNFα-stimulated BEAS-2B IL-8 release assay. It counts as cell-based. Particulars: Homo sapiens, IC50 classes, TNF-α 10 ng/ml, 18 h, read-out: TNFα-stimulated BEAS-2B IL-8 release inhibition. As to the method: TNFα-Stimulated BEAS-2B IL-8 Release Assay
Human bronchial epithelial cell line BEAS-2B was purchased from Sigma (St. Louis, Mo.). BEAS-2B cells were cultured in Bronchial Epithelial cell Growth Medium (BEGM), prepared by supplementing Bronchial Epithelial Basal Medium with SingleQuotes™ (Lonza, Switzerland), which contains retinoic acid, epidermal growth factor, epinephrine, transferrin, triiodothyronin, insulin, hydrocortisone, antimicrobial agents, and bovine pituitary extract. In addition, BEGM medium was supplemented with 2 mM glutamine, 100 U penicillin and 100 μg/ml streptomycin (Life Technologies), in an atmosphere of 95% air and 5% CO2 at 37° C.
BEAS-2B were seeded in 48-well plates at the density of 3×10^4 cells per well, grown to approximately 80-90% confluence. Cells were pre-incubated with p38 inhibitors for 1 hour and then stimulated with TNF-α (10 ng/ml) for 18 h at 37° C. with 5% CO2. Subsequently, supernatants were collected and used for measuring IL-8 levels using a paired antibody quantitative ELISA kit purchased from Life Technologies (detection limit: […]). All the treatments were performed at least in quadruplicate.
A concentration-response curve to each test compound was performed and the effect of compound in each experiment was expressed as a percentage inhibition of the control IL-8 release. Compound potency (IC50) was calculated by the analysis of the sigmoidal dose-response curve (variable slope) elaborated by Graph Pad PRISM4 program.

Structures can show the parent of a compound that is named as a salt.

T1 sequence (Q16539 whole entry): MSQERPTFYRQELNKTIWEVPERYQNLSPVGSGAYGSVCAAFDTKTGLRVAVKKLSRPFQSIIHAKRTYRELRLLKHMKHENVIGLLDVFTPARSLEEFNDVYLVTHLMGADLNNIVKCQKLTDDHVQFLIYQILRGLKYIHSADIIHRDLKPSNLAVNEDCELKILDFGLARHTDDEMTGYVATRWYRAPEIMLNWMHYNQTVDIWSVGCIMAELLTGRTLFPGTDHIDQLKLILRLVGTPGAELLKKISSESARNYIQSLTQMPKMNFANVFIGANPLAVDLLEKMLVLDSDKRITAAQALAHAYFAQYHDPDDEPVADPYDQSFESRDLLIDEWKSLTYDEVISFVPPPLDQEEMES

For the compound `CNC(=O)c1cc(NC(=O)N[C@H]2CC[C@@H](Oc3ccc4nnc([C@]5(C)CCCN5C)n4c3)c3ccccc32)cc(C(C)(C)C)c1` [Example 55, 3-tert-Butyl-5-(3-{(1S,4R)-4-[3-((S)-1,2-dimethyl-pyrrolidin-2-yl)-[1,2,4]triazolo[4,3-a]pyridin-6-yloxy]-1,2,3,4-tetrahydro-naphthalen-1-yl}-ureido)-N-methyl-benzamide], the IC50 on p38alpha is less than 1 nM; in assay [1], less than 1 nM; in the assay with BEAS-2B cells it was less than 0.3 nM.
As to `CN1CCC[C@@]1(C)c1nnc2ccc(O[C@@H]3CC[C@H](NC(=O)Nc4cc(NS(C)(=O)=O)cc(C(C)(C)C)c4)c4ccccc43)cn12` [Example 24, N-[3-tert-Butyl-5-(3-{(1S,4R)-4-[3-((S)-1,2-dimethyl-pyrrolidin-2-yl)-[1,2,4]triazolo[4,3-a]pyridin-6-yloxy]-1,2,3,4-tetrahydro-naphthalen-1-yl}-ureido)-phenyl]-methanesulfonamide], the IC50 on p38alpha was less than 1 nM; in assay [1] it was less than 1 nM; in the assay on BEAS-2B cells it was less than 0.3 nM.
For the compound `CN1CCC[C@@]1(C)c1nnc2ccc(O[C@@H]3CC[C@H](NC(=O)Nc4cc(CN(CCO)CCO)cc(C(C)(C)C)c4)c4ccccc43)cn12` [Example 75, 1-(3-{[Bis-(2-hydroxy-ethyl)-amino]-methyl}-5-tert-butyl-phenyl)-3-{(1S,4R)-4-[3-((S)-1,2-dimethyl-pyrrolidin-2-yl)-[1,2,4]triazolo[4,3-a]pyridin-6-yloxy]-1,2,3,4-tetrahydro-naphthalen-1-yl}-urea], the IC50 is less than 1 nM on p38alpha, 1 to 5 nM in assay [1] and more than 1 nM in the assay with BEAS-2B cells.
For `COc1c(NC(=O)N[C@H]2CC[C@@H](Oc3ccc4nnc(C(C)(C)N(C)C)n4c3)c3ccccc32)cc(C(C)(C)C)cc1NS(=O)(=O)C1CC1` [Example 14, Cyclopropanesulfonic acid [5-tert-butyl-3-(3-{(1S,4R)-4-[3(1-dimethylamino-1-methyl-ethyl)-[1,2,4]triazolo[4,3-a]pyridin-6-yloxy]-1,2,3,4-tetrahydro-naphthalen-1-yl}-ureido)-2-methoxy-phenyl]-amide partial formate salt], in that order: 1 to 10 nM, less than 1 nM and less than 0.3 nM.
On to `COc1c(NC(C)=O)cc(C(C)(C)C)cc1NC(=O)N[C@H]1CC[C@@H](Oc2ccc3nnc(C(C)(C)N(C)C)n3c2)c2ccccc21` [Example 10, N-[5-tert-Butyl-3-(3-{(1S,4R)-4-[3-(1-dimethylamino-1-methyl-ethyl)-[1,2,4]triazolo[4,3-a]pyridin-6-yloxy]-1,2,3,4-tetrahydro-naphthalen-1-yl}-ureido)-2-methoxy-phenyl]-acetamide], for which the IC50 at p38alpha is 1 to 10 nM; in assay [1], less than 1 nM; with BEAS-2B cells, less than 0.3 nM.
The corresponding values for `COC(=O)Nc1cc(NC(=O)N[C@H]2CC[C@@H](Oc3ccc4nnc([C@]5(C)CCCN5C)n4c3)c3ccccc32)cc(C(C)(C)C)c1` [Example 46, [3-tert-Butyl-5-(3-{(1S,4R)-4-[3-((S)-1,2-dimethyl-pyrrolidin-2-yl)-[1,2,4]triazolo[4,3-a]pyridin-6-yloxy]-1,2,3,4-tetrahydro-naphthalen-1-yl}-ureido)-phenyl]-carbamic acid methyl ester] are 1 to 10 nM, less than 1 nM and less than 0.3 nM.
The corresponding values for `CN1CCC[C@@]1(CO)c1nnc2ccc(O[C@@H]3CC[C@H](NC(=O)Nc4cc(NS(C)(=O)=O)cc(C(C)(C)C)c4)c4ccccc43)cn12` [Example 33] are less than 1 nM, less than 1 nM and 0.3 to 1 nM.
For `COCCS(=O)(=O)Nc1cc(C(C)(C)C)cc(NC(=O)N[C@H]2CC[C@@H](Oc3ccc4nnc(C(C)(C)N(C)C)n4c3)c3ccccc32)c1OC` [Example 15, 2-Methoxy-ethanesulfonic acid [5-tert-butyl-3-(3-{(1S,4R)-4-[3(1-dimethylamino-1-methyl-ethyl)-[1,2,4]triazolo[4,3-a]pyridin-6-yloxy]-1,2,3,4-tetrahydro-naphthalen-1-yl}-ureido)-2-methoxy-phenyl]-amide hydrochloride salt], in that order: 1 to 10 nM, less than 1 nM and less than 0.3 nM.
`CN1CCC[C@]1(C)c1nnc2ccc(O[C@@H]3CC[C@H](NC(=O)Nc4cc(NS(C)(=O)=O)cc(C(C)(C)C)c4)c4ccccc43)cn12` [Example 20, N-[3-tert-Butyl-5-(3-{(1S,4R)-4-[3((R)-1,2-dimethyl-pyrrolidin-2-yl)-[1,2,4]triazolo[4,3-a]pyridin-6-yloxy]-1,2,3,4-tetrahydro-naphthalen-1-yl}-ureido)-phenyl]-methanesulfonamide]: the IC50 at p38alpha is less than 1 nM; in assay [1] it was less than 1 nM; in the assay with BEAS-2B cells it was less than 0.3 nM.
For `CN1CCC[C@@]1(C)c1nnc2ccc(O[C@@H]3CC[C@H](NC(=O)Nc4cc(C(N)=O)cc(C(C)(C)C)c4)c4ccccc43)cn12` [Example 53, 3-tert-Butyl-5-(3-{(1S,4R)-4-[3-((S)-1,2-dimethyl-pyrmlidin-2-yl)-[1,2,4]triazolo[4,3-a]pyridin-6-yloxy]-1,2,3,4-tetrahydro-naphthalen-1-yl}-ureido)-benzamide], the IC50 at p38alpha is less than 1 nM; in assay [1], less than 1 nM; with BEAS-2B cells, less than 0.3 nM.
`CN1CCC[C@@]1(C)c1nnc2ccc(O[C@@H]3CC[C@H](NC(=O)Nc4cc(C(C)(C)C)ccc4CN4CCOCC4)c4ccccc43)cn12` [Example 73, 1-(5-tert-Butyl-2-morpholin-4-ylmethyl-phenyl)-3-{(1S,4R)-4-[3-((S)-1,2-dimethyl-pyrrolidin-2-yl)-[1,2,4]triazolo[4,3-a]pyridin-6-yloxy]-1,2,3,4-tetrahydro-naphthalen-1-yl}-urea]: the IC50 at p38alpha was 1 to 10 nM; in assay [1], more than 5 nM; with BEAS-2B cells, 0.3 to 1 nM.
On to `CN(C)CCOCc1cc(NC(=O)N[C@H]2CC[C@@H](Oc3ccc4nnc([C@]5(C)CCCN5C)n4c3)c3ccccc32)cc(C(C)(C)C)c1` [Example 69], for which the values for the IC50 (on p38alpha; in assay [1]; with BEAS-2B cells) were less than 1 nM, more than 5 nM and less than 0.3 nM, respectively.
`CN1CCOC[C@H]1c1nnc2ccc(O[C@@H]3CC[C@H](NC(=O)Nc4cc(NS(C)(=O)=O)cc(C(C)(C)C)c4)c4ccccc43)cn12` [Example 25, N-[3-tert-Butyl-5-(3-{(1S,4R)-4-[3-((R)-4-methyl-morpholin-3-yl)-[1,2,4]triazolo[4,3-a]pyridin-6-yloxy]-1,2,3,4-tetrahydro-naphthalenyl}-ureido)-phenyl]-methanesulfonamide]: the IC50 on p38alpha is less than 1 nM; in assay [1], more than 5 nM; in the assay on BEAS-2B cells, more than 1 nM.
For `COc1c(NC(C)=O)cc(C(C)(C)C)cc1NC(=O)N[C@H]1CC[C@@H](Oc2ccc3nnc([C@@H]4CCCCN4C)n3c2)c2ccccc21` [Example 12, N-[5-tert-Butyl-2-methoxy-3-(3-{(1S,4R)-4-[3-((S)-1-methyl-piperidin-2-yl)-[1,2,4]triazolo[4,3-a]pyridin-6-yloxy]-1,2,3,4-tetrahydro-naphthalen-1-yl}-ureido)-phenyl]-acetamide], in that order: less than 1 nM, 1 to 5 nM and 0.3 to 1 nM.
